Consider 2 compounds from patent US20130225684A1, “METHODS AND COMPOSITIONS FOR ENHANCEMENT OF VISION PERFORMANCE” (KYOWA HAKKO BIO CO., LTD., priority 2012, published 2013).

Structures are written as SMILES. “Also recorded” adds a separate entry of the source. Where a SMILES comes first, the peptide text is derived from it.

Data set [1] can be described thus: hand-eye reaction time on the Dynavison D2 after a 40 minute basketball game. The format is in vivo, women (basketball players). As to conditions: for Visual reaction time: FIG. 2. Here is the method:
The purpose of this study was to examine the efficacy of L-alanyl-Lglutamine (AG) ingestion on sports vision, including reaction time. Ten women (21.2±1.6 years; height: 177.8±8.7 cm; body mass:73.5±8.0 kg), all basketball players, volunteered for this study. The study required subjects to first participate in a 40 minute basketball game. During one trial, subjects consumed only water (W), while during the other two trials subjects consumed the AG supplement marketed as Sustamine mixed in water using either a low dose (1 g per 500 ml) (AG1) or high dose (2 g per 500 ml) (AG2) concentration. Other subjects where not allowed to consume water or AG. (DHY) Measurement of hand-eye reaction time was performed on the Dynavison D2 (Dynavision, Ontario Canada). Subjects were required to assume a comfortable athletic stance and stand at a distance from the board where they could easily reach all of the lights. The board height was adjusted so the LCD screen was located just below eye level. Participants were told to fixate their gaze on the LCD screen in the middle of the board and to keep their focus there for the entirety of the experiment. During the assessment each subject pressed a light with their dominant side index finger on the board. When a second light flashed (on the same line of the initial light, but on the non-dominant side of their body), the subject removed their finger and pressed the new visual stimulus. The time necessary to recognize the new stimulus (new light lit until finger lifted from initial light) was recorded as visual reaction time, and the time it took for the subject to move and press the newly lit light was recorded as the motor reaction time. The total time for both visual reaction and motor reaction was calculated as the physical reaction time. A total of eight attempts were performed. The average time for all eight attempts was recorded.

The conditions of data set [2]: alanylglutamine compared to glutamine; cited from earlier work.
For data set [3] the following is noted: alanylglutamine compared to glutamine; cited from earlier work. The source holds these as a separate data set.
The conditions of data set [4]: into alanine and glutamine; cited from earlier work.

For the compound `C[C@H](N)C(=O)N[C@@H](CCC(N)=O)C(=O)O` [AG, L-alanyl-Lglutamine] (H-Ala-Gln-OH), the Visual reaction time result is listed as “significantly better; also recorded: enhanced visual reaction time” in data set [1] (AG1: low dose (1 g per 500 ml) in water, compared to DHY (no water and no AG), p=0.014); “trend toward a similar response” in data set [1] (AG2: high dose (2 g per 500 ml) in water, compared to DHY, p=0.018). In addition, the “change in the physical reaction time (combined visual and motor differences)” value in data set [1] (AG1: low dose (1 g per 500 ml) in water, compared to DHY, p=0.032) is “significantly greater”. Besides, the “motor response (motor reaction time)” value in data set [1] (between trials (AG1, AG2, W, DHY), FIG. 3) was “no significant differences”. In addition, the “solubility in aqueous solutions” value in data set [2] is listed as “superior”. For the same compound, the heat stability entry in data set [3] is listed as “superior”. Besides, the “degradation in the body” value in data set [4] is reported as “immediately degraded”.
Turning to `NC(=O)CC[C@H](N)C(=O)O` [glutamine, reference compound], the “solubility in aqueous solutions” value in data set [2] is “low-solubility”.
